Laboratory results reported in patent publication US20160238590A1, “COMPOSITIONS AND METHODS RELATED TO OAT SENSITIVITY” (IMMUSANT, INC., priority 2013, published 2016).
Where no end group is shown, it is not given here.

How the values were obtained:
Assay in all cases: IFN-γ ELISpot with T cell clone
Assay type in all cases: cell-based, human
Patient 2 TCC-03 = details: TCC Patient 2 TCC-03, peptide 25 μg/mL
Protocol: (§1) Peripheral blood mononuclear cells (PBMC) were isolated from heparinized whole blood using Ficoll-Paque™ Plus density-gradient centrifugation (GE Healthcare). IFN-γ ELISpot (Mabtech) was set up as previously described^8.
(§2) Isolation of TCC from CD patients was carried out as previously described^8. Briefly, CFSE-labeled PBMC were incubated with antigen for 7 days in IMDM supplemented with 5% heat-inactivated pooled human serum (PHS), 2 mM GlutaMAX™, 100 μM MEM non-essential amino acids (both from Gibco, Invitrogen), and 50 μM 2-mercaptoethanol (Sigma). Proliferated cells were single-cell sorted into 96-well plates containing IL-2, IL-4, anti-CD3 mAb, irradiated feeder cells (allogeneic PBMC and JY-EBV). TCC were expanded and maintained in IL-2 and IL-4 and tested for specificity by ELISpot with irradiated HLA-matched PBMC as antigen-presenting cells. Expanded clones were tested for HLA-DQ restriction, TCR Vbeta usage, and with lysine scans to work out minimal epitopes. See Table 1 below for TCC and epitope information.

Patient 2 TCC-02 = details: TCC Patient 2 TCC-02, peptide 25 μg/mL
Protocol: as §1, §2

Patient 2 TCC-01 = system: Patient 2 TCC-01
Protocol: as §1, §2

Patient 6 TCC-01 = system: Patient 6 TCC-01
Protocol: as §1, §2

Patient 8 TCC-01 = details: TCC Patient 8 TCC-01, peptide 25 μg/mL
Protocol: as §1, §2

Patient 14 TCC-01 = details: TCC Patient 14 TCC-01, peptide 50 μg/mL
Protocol: as §1, §2

Patient 9 TCC-02 = details: TCC Patient 9 TCC-02, peptide 50 μg/mL
Protocol: as §1, §2

Patient 9 TCC-01 = details: TCC Patient 9 TCC-01, peptide 50 μg/mL
Protocol: as §1, §2

Patient 10 TCC-01 = details: TCC Patient 10 TCC-01, peptide 50 μg/mL
Protocol: as §1, §2

[1] = TCC Patient 2 TCC-01, peptide 25 μg/mL
[2] = TCC Patient 6 TCC-01, peptide 25 μg/mL
[3] = TCC Patient 2 TCC-01, peptide 50 μg/mL
[4] = TCC Patient 6 TCC-01, peptide 50 μg/mL

Sequence	IFN-γ ELISpot response (SFU) (Patient 2 TCC-03)	IFN-γ ELISpot response (SFU) (Patient 2 TCC-02)	IFN-γ ELISpot response (SFU) (Patient 2 TCC-01; [1])	significant SFU as a percentage of maximal peptide SFU (Patient 2 TCC-01; [1])	IFN-γ ELISpot response (SFU) (Patient 6 TCC-01; [2])	significant SFU as a percentage of maximal peptide SFU (Patient 6 TCC-01; [2])	IFN-γ ELISpot response (SFU) (Patient 8 TCC-01)	significant SFU as a percentage of maximal peptide SFU (Patient 8 TCC-01)	IFN-γ ELISpot response (raw SFU) (Patient 14 TCC-01)	IFN-γ ELISpot response (raw SFU) (Patient 9 TCC-02)	IFN-γ ELISpot response (raw SFU) (Patient 2 TCC-01; [3])	IFN-γ ELISpot response (raw SFU) (Patient 9 TCC-01)	IFN-γ ELISpot response (raw SFU) (Patient 6 TCC-01; [4])	IFN-γ ELISpot response (raw SFU) (Patient 10 TCC-01)	also measured
SEQYQPYPEQEQPFV [DQ2.5-ave-1b]	1 SFU	102 SFU	240 SFU	*** (***: >70%)	30 SFU	* (*: 20-40%)	50 SFU	* (*: 20-40%)							significant SFU as a percentage of maximal peptide SFU (Patient 2 TCC-02): * (*: 20-40%)
LQPFPQPELPYPQPQ [reference compound]									22 SFU	240 SFU	0 SFU	287 SFU	2 SFU	39 SFU	significant SFU as a percentage of maximal peptide SFU (Patient 9 TCC-02): *** (***: >70%); significant SFU as a percentage of maximal peptide SFU (Patient 9 TCC-01): *** (***: >70%)
PEQPFPEQPQPYPQQP (not fully specified (C-terminus))	159 SFU	5 SFU	151 SFU	** (**: 40-70%)	59 SFU	** (**: 40-70%)	145 SFU	*** (***: >70%)	66 SFU	0 SFU	202 SFU	0 SFU	73 SFU	3 SFU	significant SFU as a percentage of maximal peptide SFU (Patient 2 TCC-03): *** (***: >70%); significant SFU as a percentage of maximal peptide SFU (Patient 14 TCC-01): *** (***: >70%); significant SFU as a percentage of maximal peptide SFU (Patient 2 TCC-01; [3]): ** (**: 40-70%); significant SFU as a percentage of maximal peptide SFU (Patient 6 TCC-01; [4]): *** (***: >70%)
